Results: patent publication US12661334B2, “Dietary butyrate and its uses” (SOCIETE DES PRODUITS NESTLE S.A., priority 2019, dated 2026)

Legend:
[1] = target: T1, porcine pancreatic lipase (PPL) (Sus scrofa, UniProt P00591); conditions: pig, 3 h, pH 11.5
T1 sequence (P00591 1-450): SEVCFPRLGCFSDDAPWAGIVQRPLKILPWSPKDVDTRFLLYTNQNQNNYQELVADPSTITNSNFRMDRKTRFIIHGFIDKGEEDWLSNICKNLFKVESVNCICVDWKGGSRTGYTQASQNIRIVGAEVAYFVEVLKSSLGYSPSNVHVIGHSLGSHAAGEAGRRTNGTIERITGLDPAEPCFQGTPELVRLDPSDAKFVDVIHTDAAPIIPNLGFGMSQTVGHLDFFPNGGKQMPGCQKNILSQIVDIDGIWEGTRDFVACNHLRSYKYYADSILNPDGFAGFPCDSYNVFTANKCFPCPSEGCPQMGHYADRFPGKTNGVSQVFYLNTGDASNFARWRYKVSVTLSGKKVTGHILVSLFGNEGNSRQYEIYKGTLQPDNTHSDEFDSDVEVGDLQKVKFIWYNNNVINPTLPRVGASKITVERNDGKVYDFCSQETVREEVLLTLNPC
T1 sequence (P02703 23-112 partner): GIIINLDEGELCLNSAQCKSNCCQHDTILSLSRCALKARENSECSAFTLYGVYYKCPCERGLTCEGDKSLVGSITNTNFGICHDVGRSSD
Description: Because many fatty acids are only partially ionised at pH 6.8, direct titration gives only partial picture of the extent of lipid digestion, instead back titration to pH 11.5 or GC-FAME analysis is required to estimate the full extent of digestion.

[2] = test system: rabbit gastric lipase (RGL) followed by porcine pancreatic lipase (PPL)
Description: 10 wt % oil in water emulsions stabilised by 0.3 wt % polyoxyethylene sorbitan mono-oleate (Tween® 80) were prepared by mixing the Tween 80 into the oil phase at 40° C., then mixing with the water phase using a magnetic stirrer. An emulsion was then created using a Hielscher UP 400S ultrasonic probe homogeniser equipped with a 5 mm diameter rod-like probe by applying 100% amplitude at 100% cycle for 2 minutes whilst the sample was cooled using ice water.
The lipid emulsion (2 mL) containing 200 mg of fat was subjected to gastrointestinal in vitro lipolysis. […] For gastric digestion, the sample was incubated for 90 minutes with 8.5 mL of simulated gastric fluid (SGF), which consisted of 150 mM NaCl, 450 U/mL pepsin, 18 U/mL rabbit gastric lipase at 37° C. and a pH of 5.5.
The intestinal digestion step was performed in the pH stat where the pH was kept constant at 6.8 by addition of NaOH (0.05 M). […] The intestinal digestion step starts when the temperature reaches 37±0.5° C. The pH was adjusted to pH 6.8 and after incubation of two minutes at this pH and temperature, a pancreatin solution (5 mM tris, 150 mM NaCl at pH 6.8) was added. The final composition of the intestinal fluid was 10 mM CaCl2, 12 mM mixed bile salts, 0.75 mM phospholipid, 150 mM NaCl and 4 mM tris(hydroxymethyl)aminomethane buffer. The intestinal digestion step was carried out for 3 hours in a titration manager from Radiometer. During the intestinal phase of digestion, the kinetics of digestion were followed using a pH-stat (TIM856, Radiometer) technique and expressed as titratable acid (rather than fatty acid) that was calculated by the equation: TA=VNaOH×0:05×1000
TA: Total titratable acid released, mmol; VNaOH: volume of NaOH used to titrate the released acid in 3 h, mL.

CCCC(=O)OCC(COC(=O)CCC)OC(=O)CCC [tributyrin]
Extent of digestion [1]: 101.5±0.9%
Total amount of acid released ([2]; rabbit (gastric lipase), pig (pancreatic lipase), 3 h, pH 6.8): 381 ± 20 µmol
Initial lipolysis rate in SIF ([2]; rabbit (gastric lipase), pig (pancreatic lipase), pH 6.8): 44.1 ± 8.8 µmol/min
Lipolysis by gastric lipase ([2]; rabbit, 90 min, 19 mg/mL, pH 5.5): ~60%
